Legend:
[1] = test system: CD47; assay: Flow cytometry, anti-human CD47 CC2C6 antibody binding on Raji cell surface; assay type: cell-based; conditions: for IC50: B-cell Lymphoma (Raji cells), 4 days treatment, read-out: IC50, inhibition of CC2C6 binding; for inhibition of binding of anti-human CD47 antibody CC2C6 (in words): Raji cells
Experimental: (§1) Binding between CD47 and SIRPα was studied by measuring the level of CD47 binding using any suitable method. Flow cytometric analysis is useful to quantify the level of binding of CD47 to antibody CC2C6, which is then subjected to an immune-staining procedure using fluorochrome-conjugated secondary antibody followed by analysis of the immune-staining signal with a flow cytometry instrument to obtain the level of the CD47-CC2C6 binding. In another method, analysis of CD47 is performed using SIRPα-Fc formed from SIRPα fused with human IgG1, which is then subjected to an immune-staining procedure using fluorochrome-conjugated secondary antibody against human IgG1, followed by analysis of the immune-staining signal. SIRPα is expressed on the surface of a myeloid cell such as macrophage, monocyte, neutrophil, or dendritic cell. Alternatively, SIRPα is fused with human IgG1 to form a SIRPα-Fc recombinant protein. […] An anti-cancer agent (e.g., rituximab) can be used together with a compound of formula (I). Useful anti-cancer agents are described above including anti-PD-L1 antibodies, anti-CD20 antibodies, anti-HER2 antibodies, anti-EGFR antibodies, and anti-CD47 antibodies. Other suitable anti-cancer agents are chemotherapeutic agents such as doxorubicin, epirubicin, idarubicin, methotrexate, mitoxantrone, oxaliplatin, and cyclophosphamide.
Human B-cell lymphoma Raji cells were purchased from BCRC, Taiwan. Raji cells were maintained at 37° C. under 5% CO2 in RPMI-1640 medium (Hyclone, Marlborough, Mass.) supplemented with 10% fetal bovine serum (FBS) (SAFC, Sigma-Aldrich, St. Louis, Mo.) containing 2 mM L-glutamine (Hyclone, Marlborough, Mass.), 10 mM HEPES (Hyclone, Marlborough, Mass.) and 1 mM sodium pyruvate (Hyclone, Marlborough, Mass.).
(§2) Antibody conjugates and extracellular domain of SIRPα used to analyze cell surface CD47 binding include anti-human CD47 CC2C6, 2D3, recombinant human SIRPα/CD172a Fc chimer protein, and anti-human IgG Fc. To determine inhibition of CD47 binding, cancer cells were treated with compounds of formula (I) at various concentrations for 4 days. Thereafter, the cells were washed with PBS containing 0.5% BSA (FACS buffer) followed by incubation with fluorochrome-labeled antibodies to human CD47 (i.e., CC2C6 and 2D3) at 1:50 dilution in FACS buffer for 30 minutes at 4° C. Compounds of formula (I) produced a dose-dependent inhibition of anti-CD47 CC2C6 antibody that recognized CD47 and SIRPα binding site on the tumor cell surface including B-cell lymphoma Raji cells, colon cancer cells DLD-1, and ovarian cancer SK-OV-3 cells (see FIGS. 1A, 1B, and 1C, respectively).

[2] = test system: CD47; assay: Flow cytometry, anti-human CD47 CC2C6 antibody binding on DLD-1 cell surface; assay type: cell-based; conditions: for IC50: Colon Cancer (DLD-1 cells), 4 days treatment, read-out: IC50, inhibition of CC2C6 binding; for inhibition of binding of anti-human CD47 antibody CC2C6 (in words): DLD-1 cells
Experimental: as §1
Human colon cancer DLD-1 cells were obtained from NHRI IBPR HTS Lab, Taiwan. DLD-1 cells were maintained under the same conditions described immediately above.
as §2

[3] = test system: CD47; assay: Flow cytometry, anti-human CD47 CC2C6 antibody binding on SK-OV-3 cell surface; assay type: cell-based; conditions: for inhibition of binding of anti-human CD47 antibody CC2C6 (in words): SK-OV-3 cells; for IC50: Ovarian Cancer (SK-OV3 cells), 4 days treatment, read-out: IC50, inhibition of CC2C6 binding
Experimental: as §1
SK-OV-3 cells were purchased from ATCC (Manassas, Va.). SK-OV-3 cells were maintained at 37° C. under 5% CO2 in McCoy's 5a medium (Gibco, ThermoFisher, Waltham, Mass.) with 10% fetal bovine serum (FBS) (Sigma-Aldrich, St Louis, Mo.), and 2 mM L-glutamine.
as §2

[4] = test system: CD47; assay: Flow cytometry, anti-human CD47 2D3 control antibody binding on Raji cell surface; assay type: cell-based; conditions: Raji cells
Experimental: as §2

[5] = Mouse pk profiles; assay type: in vivo; conditions: for clearance / Cmax / bioavailability / half-life: plasma; for bioavailability: PO (30 mg/kg) vs IV (2 mg/kg); for half-life: read-out: T1/2 (h) Plasma (converted)
[6] = test system: human B-cell lymphoma Raji xenograft tumor; assay: Raji xenograft anti-tumor efficacy and survival study (3 weeks treatment); assay type: in vivo, NOD/SCID mice; conditions: Compound 34 100 mg/kg p.o. QD*5, rituximab 10 mg/kg i.p. 2QW
From the text: (§3) Human B-cell lymphoma Raji cells were used to evaluate the efficacy of Compound 34 and rituximab in treating cancer cells. Prior to injection into animals, the cancer cells were detected as free of Mycoplasma spp. NOD/SCID mice (BioLasco, Taiwan) were used for in vivo experiments due to their higher affinity of SIRPα to human CD47. The mice used in these studies were housed in Institutional Animal Care and Use Committees-approved facility at National Health Research Institutes in accordance with guidelines for the care and use of laboratory animals.
One million Raji cells in culture medium and matrigel (1:1, v/v) were injected subcutaneously into the left flank region of the mice (n=7 to 10 animals per group). Treatments were initiated after randomization with inclusion of tumors at approximately 100 mm^3. A dosing vehicle for Compound 34 was prepared using 10% DMA: 40% PEG400: 50% (1% CMC) (v/v/v) and was dosed orally (p.o.) at 100 mg/kg once a day, 5 days a week (Q.D.*5). Rituximab (Roche-Genentech, South San Francisco, Calif.) stock solution was diluted with PBS and dosed at 10 mg/kg twice a week (2QW) by intraperitoneal (i.p.) injection.
To evaluate anti-tumor efficacy and survival rates, mice were treated with vehicle control, 10 mg/kg rituximab (2QW, i.p.), 100 mg/kg Compound 34 (QD*5), or rituximab in combination with Compound 34. Treatment was discontinued at the end of 3 weeks. The mice were monitored for cancer growth and body weight once a week. Cancer growth was measured by volume with an electronic caliper. The volume was calculated as L×W^2/2, in which L is the length of the tumor and W is its width. Tumor size and animal body weight were measured once a week after cancer cell inoculation. Cancer response at the end of the study was calculated as tumor growth inhibition (TGI) using (1−T/C)*100, in which T is the mean tumor volume (mm^3) of the test group, and C is the mean tumor volume (mm^3) of the vehicle-treated group. […] For the survival study, treatment was discontinued at the end of 3 weeks. Thereafter, mice were followed up for tumor growth and body weight once a week. The mice were then sacrificed when tumor volume reached 2,000 mm^3 or body weight loss was greater than 10%. Kaplan-Meier plots were used as the study end point to calculate percentage of animals remaining in the study in term of the time. The median survival days for vehicle control and Compound 34 were 15.5 days and 18 days, respectively (FIG. 5E). Rituximab prolonged median survival days to 28 days after treatment discontinued (FIGS. 5C and 5E). Importantly, the combination of rituximab and Compound 34 further prolonged median survival days to 47 days (FIGS. 5D and 5E).

[7] = test system: human B-cell lymphoma Raji xenograft tumor; assay: Raji xenograft dose-dependent efficacy of Compound 34 with rituximab (6 weeks); assay type: in vivo, NOD/SCID mice; conditions: rituximab 10 mg/kg alone
From the text: as §3
To evaluate dose-dependent anti-tumor efficacy of Compound 34 in combination with rituximab, mice were treated with vehicle control, rituximab, or rituximab in combination with Compound 34 for 6 weeks. A dosing vehicle for Compound 34 was prepared using 10% DMA: 40% PEG400: 50% (1% CMC) (v/v/v) and was dosed orally (p.o.) at 10 mg/kg, 30 mg/kg, and 100 mg/kg once a day, 5 days a week (Q.D.*5). Rituximab (Roche-Genentech, South San Francisco, Calif.) stock solution was diluted with PBS and dosed at 10 mg/kg twice a week (2QW) by intraperitoneal (i.p.) injection. Cancer growth was measured by volume with an electronic caliper. The volume was calculated as L×W^2/2, in which L is the length of the tumor and W is its width. Tumor size and animal body weight were measured once a week after cancer cell inoculation. Cancer response at the end of the study was calculated as tumor growth inhibition (TGI) using (1−T/C)*100, in which T is the mean tumor volume (mm^3) of the test group, and C is the mean tumor volume (mm^3) of the vehicle-treated group. The treatment response rate were classified into 4 categories: complete regression (CR), in which the tumor was undetectable at the end of study; partial regression (PR), in which the tumor volume was less than or equal to 30% of the initial tumor volume at the end of study; stable disease (SD), in which the tumor volume was between […] of the initial tumor volume at the end of study; progression disease (PD), in which the tumor volume was greater than 50% of the initial tumor volume at the end of study. An overall response rate (ORR) is calculated based on the CR and PR groups. […] When treated with Compound 34 (at 100 mg/kg) in combination with rituximab, 6 out of 10 mice (60%) fell under the CR group, and 1 out of 10 mice (10%) fell under the PR group. On the other hand, no animals had CR (0%) and only 2 out of 10 mice (20%) were PR by rituximab (at 10 mg/kg), resulting in 70% ORR by the combination treatment and 20% by antibody only.

Molecule	IC50 [1]	inhibition of binding of anti-human CD47 antibody CC2C6 (in words) [1]	IC50 [2]	inhibition of binding of anti-human CD47 antibody CC2C6 (in words) [2]	inhibition of binding of anti-human CD47 antibody CC2C6 (in words) [3]	inhibition of binding of anti-human CD47 antibody 2D3 (in words) [4]	AUC Plasma ([5]; IV (2 mg/kg))	AUC Plasma ([5]; PO (30 mg/kg))	clearance ([5]; IV (2 mg/kg))	Cmax ([5]; PO (30 mg/kg))	bioavailability [5]	half-life ([5]; PO (30 mg/kg))	IC50 [3]	other results
O=C1NC[C@H](c2ccc(-c3cnc(C(F)(F)F)s3)cc2)N1c1ccc2[nH]cnc2c1 [Compound 30]	840 nM	effectively inhibited	1010 nM	effectively inhibited	effectively inhibited	did not inhibit	3037 ng·h/g	21170 ng·h/g	12.7 mL/min/kg	1780 ng/mL	47%	5.2 h		
O=C1NC[C@H](c2ccc(-c3csc(C(F)(F)F)c3)cc2)N1c1ccc2[nH]cnc2c1 [Compound 32]	1380 nM	effectively inhibited	790 nM	effectively inhibited	effectively inhibited	did not inhibit	8185 ng·h/g	68659 ng·h/g	4 mL/min/kg	3720 ng/mL	56%	12.7 h	200 nM	
CCCOc1ccc([C@H]2CNC(=O)N2c2ccc3[nH]cnc3c2)cc1 [PQ912, reference compound]	5950 nM		3190 nM				520 ng·h/g	6359 ng·h/g	64 mL/min/kg	2020 ng/mL	82%	2.8 h	150 nM	
Rituximab: an anti-human CD20 antibody (Roche-Genentech)														tumor growth inhibition (TGI, % of control) ([6]; 3 weeks): 78.5%; median survival days ([6]; treatment discontinued at 3 weeks): 28 days; CR (complete regression), rate [7]: 0 (0%); ORR (overall response rate, CR and PR), rate [7]: 20%; PD (progression disease), rate [7]: 80%; PR (partial regression), rate [7]: 20%; CR (complete regression), number of mice ([7]; of 10 mice): 0 (0%); ORR (overall response rate, CR and PR), number of mice ([7]; of 10 mice): 2; PD (progression disease), number of mice ([7]; of 10 mice): 8; PR (partial regression), number of mice ([7]; of 10 mice): 2; CR (complete regression), rate ([7]; listed as rituximab): 0%

From US20230097801A1, “METHODS OF INCREASING CELL PHAGOCYTOSIS” (National Health Research Institutes, priority 2021, published 2023)
